In patent US11530229B2, “Cyano cyclobutyl compounds for CBL-B inhibition and uses thereof” (Nurix Therapeutics, Inc., priority 2019, dated 2022) one finds fold induction and IC50 data, which are given here for ten molecules.

SMILES strings stand for the structures. Like-named read-outs stand apart in the source and are kept apart here.

Test [1] has as its system primary human total T-cells. As to the kind of experiment: T-cell activation, CD25 surface staining, Biological Example 2. The following applies: 48 hours, fold change over baseline; for fold induction at 0.3 µM: 0.3 μM inhibitor; for fold induction at 1 µM: 1 μM inhibitor; for fold induction at 3 µM: 3 μM inhibitor. In kind it is cell-based.
The subject of test [2] is primary human total T-cells. As to the kind of experiment: T-cell activation, IL-2 secretion, Biological Example 2. The format is cell-based. The following applies: 48 hours, fold change over baseline; for fold induction at 0.3 µM: 0.3 μM inhibitor; for fold induction at 1 µM: 1 μM inhibitor; for fold induction at 3 µM: 3 μM inhibitor.
The next test deals with Cbl-b (Homo sapiens (Human), UniProt Q13191). As to the kind of experiment: Cbl-b displacement assay (Cbl-b inhibition assay), Biological Example 1. The format is binding. On the procedure:
Candidate compounds were evaluated for their ability to bind and inhibit Cbl-b, an E3 ubiquitin-protein ligase, as evidenced by their ability to displace a fluorophore-labeled probe (Example 59) bound to Cbl-b.
The ability of candidate compounds to displace a known inhibitor and thereby inhibit Cbl-b activity was measured by monitoring the interaction of Cbl-b with a fluorophore-labeled probe in the presence of the candidate compound. A truncated variant of Cbl-b (UniProt number Q13191; SEQ ID NO:1) containing an Avitag at its N-terminus was co-expressed with BirA biotin ligase and purified using a standard protocol (see Dou et al., Nature Structural and Molecular Biology, 8: 982-987, 2013; Avidity LLC).
Cbl-b Amino Acid Residues 36-427:
Fluorescently-labeled inhibitor probe was synthesized and tagged with BODIPY FL (Example 59). Cbl-b displacement assays were performed in a 384-well plate at room temperature in a 10 μL reaction volume by pre-incubating 0.5 nM Cbl-b or 0.125 nM Cbl-b (final concentration, indicated as “High” and “Low”, respectively) in an assay buffer containing 20 mM HEPES pH 7.5, 150 mM NaCl, 0.01% Triton X-100, 0.01% BSA and 0.5 mM TCEP in the presence of a candidate compound in 1% DMSO (final concentration) for 1 hour. After incubation in the presence of the candidate compound, the plate was incubated for an additional 1 hour in the presence of an approximate EC40 binding saturation consisting of 150 nM fluorescently-labeled inhibitor probe and 2 nM Streptavidin-Terbium (Cisbio) (final concentrations). Following the 1 hour incubation, the plates were read for TR-FRET signal at […] using an Envision plate reader (Perkin Elmer).

[3] abbreviates: anti-CD3 and anti-CD28 co-stimulation.
The mark [4] stands for this setting: anti-CD3 and anti-CD28 co-stimulation, read-out: CD25 staining CD3/CD28 1 μM.
[5] abbreviates: anti-CD3 stimulation alone, read-out: CD25 staining CD3 1 μM.
The mark [6] stands for this setting: anti-CD3 and anti-CD28 co-stimulation, read-out: IL-2 secretion CD3/CD28 1 μM.
The mark [7] stands for this setting: anti-CD3 stimulation alone, read-out: IL-2 secretion CD3 1 μM.
Setting [8] is: 0.125 nM Cbl-b final concentration (Low), read-out: Cbl-b activity IC50 (Low).
[9] abbreviates: read-out: IC50 values in the Cbl-b inhibition assay of Biological Example 1.

Sequence of Cbl-b (Q13191 36-427): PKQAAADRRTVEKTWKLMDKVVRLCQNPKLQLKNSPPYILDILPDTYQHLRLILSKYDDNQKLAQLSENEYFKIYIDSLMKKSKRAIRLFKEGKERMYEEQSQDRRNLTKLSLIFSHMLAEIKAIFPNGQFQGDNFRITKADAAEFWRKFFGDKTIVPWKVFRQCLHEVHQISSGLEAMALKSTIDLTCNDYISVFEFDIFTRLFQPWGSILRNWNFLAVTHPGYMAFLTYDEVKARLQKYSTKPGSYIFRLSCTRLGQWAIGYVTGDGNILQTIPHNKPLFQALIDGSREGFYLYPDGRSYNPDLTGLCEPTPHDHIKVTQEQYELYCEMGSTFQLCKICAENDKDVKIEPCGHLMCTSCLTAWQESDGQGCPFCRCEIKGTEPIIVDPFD

For the molecule `Cn1cnnc1C[C@]1(c2cccc(N3Cc4c(cc(CNC5CCC(F)(F)C5)nc4C4CC4)C3=O)c2)C[C@H](C#N)C1` (stereo partly shown) [Compound 39, (1r,3r)-3-(3-(4-cyclopropyl-6-(((3,3-difluorocyclopentyl)amino)methyl)-1-oxo-1,3-dihydro-2H-pyrrolo[3,4-c]pyridin-2-yl)phenyl)-3-((4-methyl-4H-1,2,4-triazol-3-yl)methyl)cyclobutane-1-carbonitrile], the fold induction at 0.3 µM was 1.24 to 1.39 in test [1] (setting [3]) and at most 15 in test [2] (setting [3]). Also, the fold induction at 1 µM in test [1] (setting [4]) was at most 1.24; in test [1] (setting [5]), at most 1; in test [2] (setting [6]), at most 15; in test [2] (setting [7]), below 0.4. The fold induction at 3 µM in test [1] (anti-CD3 stimulation alone) was at most 1; in test [2] (anti-CD3 stimulation alone) it was below 0.4. For the same molecule, the IC50 at Cbl-b (setting [8]) and on Cbl-b (setting [9]) was 1 to 2 nM each time.
On to `Cn1cnnc1C[C@]1(c2cccc(N3Cc4c(cc(CN5CCCOC(CO)C5)cc4C(F)(F)F)C3=O)c2)C[C@H](C#N)C1` (stereo partly shown) [Compound 41, (1r,3r)-3-(3-(6-((2-(hydroxymethyl)-1,4-oxazepan-4-yl)methyl)-1-oxo-4-(trifluoromethyl)isoindolin-2-yl)phenyl)-3-((4-methyl-4H-1,2,4-triazol-3-yl)methyl)cyclobutane-1-carbonitrile], for which the fold induction at 0.3 µM in test [1] (setting [3]) is 1.24 to 1.39; in test [2] (setting [3]), at most 15. Moreover, the fold induction at 1 µM in test [1] (setting [4]) is above 1.39; in test [1] (setting [5]) it was at most 1; in test [2] (setting [6]) it was at most 15; in test [2] (setting [7]), below 0.4. Besides, the figures for the fold induction at 3 µM in test [1] (anti-CD3 stimulation alone) and in test [2] (anti-CD3 stimulation alone) were 1 to 1.15 and below 0.4, respectively. The IC50 at Cbl-b (setting [8]) was in the range of 2 to 5 nM.
As to `CCC1CN(Cc2cc3c(c(C(F)(F)F)c2)CN(c2cccc([C@]4(Cc5nncn5C)C[C@@H](C#N)C4)c2)C3=O)CCCO1` (stereo partly shown) [Compound 5, (1r,3r)-3-(3-(6-((2-ethyl-1,4-oxazepan-4-yl)methyl)-1-oxo-4-(trifluoromethyl)isoindolin-2-yl)phenyl)-3-((4-methyl-4H-1,2,4-triazol-3-yl)methyl)cyclobutane-1-carbonitrile], the values for the fold induction at 0.3 µM in test [1] (setting [3]) and in test [2] (setting [3]) were above 1.39 and above 20, respectively. Moreover, the fold induction at 1 µM was above 1.39 in test [1] (setting [4]), above 1.15 in test [1] (setting [5]), above 20 in test [2] (setting [6]) and above 0.85 in test [2] (setting [7]). Also, the fold induction at 3 µM in test [1] (anti-CD3 stimulation alone) was above 1.15; in test [2] (anti-CD3 stimulation alone), above 0.85. Further, the IC50 at Cbl-b (setting [8]) and on Cbl-b (setting [9]) was 2 to 5 nM in each case.
`COCC1CCCCN(Cc2cc3c(c(C(F)(F)F)c2)CN(c2cccc([C@]4(Cc5nncn5C)C[C@@H](C#N)C4)c2)C3=O)C1` (stereo partly shown) [Compound 45, (1r,3r)-3-(3-(6-((3-(methoxymethyl)azepan-1-yl)methyl)-1-oxo-4-(trifluoromethyl)isoindolin-2-yl)phenyl)-3-((4-methyl-4H-1,2,4-triazol-3-yl)methyl)cyclobutane-1-carbonitrile]: the results for the fold induction at 0.3 µM in test [1] (setting [3]) and in test [2] (setting [3]) were 1.24 to 1.39 and at most 15, respectively. Also, the fold induction at 1 µM in test [1] (setting [4]) is 1.24 to 1.39; in test [1] (setting [5]) it was 1 to 1.15; in test [2] (setting [6]) it was above 20; in test [2] (setting [7]), 0.4 to 0.85. The fold induction at 3 µM in test [1] (anti-CD3 stimulation alone) is 1 to 1.15; in test [2] (anti-CD3 stimulation alone) it was above 0.85. For the same molecule, the half-inhibitory concentration (IC50) at Cbl-b (setting [8]) and on Cbl-b (setting [9]) was 2 to 5 nM each time.
As for `Cn1cnnc1C[C@]1(c2cccc(N3Cc4c(cccc4C(F)(F)F)C3=O)c2)C[C@H](C#N)C1` [Compound 3, (1r,3r)-3-((4-methyl-4H-1,2,4-triazol-3-yl)methyl)-3-(3-(1-oxo-4-(trifluoromethyl)isoindolin-2-yl)phenyl)cyclobutane-1-carbonitrile], the figures for the fold induction at 0.3 µM in test [1] (setting [3]) and in test [2] (setting [3]) were at most 1.24 and at most 15, respectively. The fold induction at 1 µM in test [1] (setting [4]) is at most 1.24; in test [1] (setting [5]), at most 1; in test [2] (setting [6]) it was at most 15; in test [2] (setting [7]), below 0.4. Further, the fold induction at 3 µM in test [1] (anti-CD3 stimulation alone) is 1 to 1.15; in test [2] (anti-CD3 stimulation alone) it was below 0.4. In addition, the concentration for half-maximal inhibition (IC50) at Cbl-b (setting [8]) and on Cbl-b (setting [9]) was at least 20 nM each time.
`Cn1cnnc1C[C@]1(c2cccc(N3Cc4c(cc(CNC5CCC(C)(C)C5)cc4C(F)(F)F)C3=O)c2)C[C@H](C#N)C1` (stereo partly shown) [Compound 31, (1r,3r)-3-(3-(6-(((3,3-dimethylcyclopentyl)amino)methyl)-1-oxo-4-(trifluoromethyl)isoindolin-2-yl)phenyl)-3-((4-methyl-4H-1,2,4-triazol-3-yl)methyl)cyclobutane-1-carbonitrile]: the fold induction at 0.3 µM is above 1.39 in test [1] (setting [3]) and above 20 in test [2] (setting [3]). Further, the fold induction at 1 µM in test [1] (setting [4]) is above 1.39; in test [1] (setting [5]), above 1.15; in test [2] (setting [6]), above 20; in test [2] (setting [7]), above 0.85. For the same molecule, the fold induction at 3 µM in test [1] (anti-CD3 stimulation alone) is above 1.15; in test [2] (anti-CD3 stimulation alone) it was above 0.85. Moreover, the half-inhibitory concentration (IC50) at Cbl-b (setting [8]) and at Cbl-b (setting [9]) was below 1 nM each time.
For the molecule `COCC1COCCN(Cc2cc3c(c(C(F)(F)F)c2)CN(c2cccc([C@]4(Cc5nncn5C)C[C@@H](C#N)C4)c2)C3=O)C1` (stereo partly shown) [Compound 46, (1r,3r)-3-(3-(6-((6-(methoxymethyl)-1,4-oxazepan-4-yl)methyl)-1-oxo-4-(trifluoromethyl)isoindolin-2-yl)phenyl)-3-((4-methyl-4H-1,2,4-triazol-3-yl)methyl)cyclobutane-1-carbonitrile], the results for the fold induction at 0.3 µM in test [1] (setting [3]) and in test [2] (setting [3]) were above 1.39 and at most 15, respectively. In addition, the fold induction at 1 µM in test [1] (setting [4]) was above 1.39; in test [1] (setting [5]) it was above 1.15; in test [2] (setting [6]), 15 to 20; in test [2] (setting [7]) it was 0.4 to 0.85. Moreover, the fold induction at 3 µM was above 1.15 in test [1] (anti-CD3 stimulation alone) and above 0.85 in test [2] (anti-CD3 stimulation alone). The IC50 at Cbl-b (setting [8]) and at Cbl-b (setting [9]) was 5 to 20 nM throughout.
`CC1CCN(Cc2cc3c(c(C(F)(F)F)c2)CN(c2cccc([C@]4(Cc5nncn5C)C[C@@H](C#N)C4)c2)C3=O)CC(C)O1` (stereo partly shown) [Compound 34, (1r,3r)-3-(3-(6-((2,7-dimethyl-1,4-oxazepan-4-yl)methyl)-1-oxo-4-(trifluoromethyl)isoindolin-2-yl)phenyl)-3-((4-methyl-4H-1,2,4-triazol-3-yl)methyl)cyclobutane-1-carbonitrile]: the fold induction at 0.3 µM was at most 1.24 in test [1] (setting [3]) and at most 15 in test [2] (setting [3]). In addition, the fold induction at 1 µM in test [1] (setting [4]) is at most 1.24; in test [1] (setting [5]), at most 1; in test [2] (setting [6]), at most 15; in test [2] (setting [7]), below 0.4. The values for the fold induction at 3 µM in test [1] (anti-CD3 stimulation alone) and in test [2] (anti-CD3 stimulation alone) were at most 1 and 0.4 to 0.85, respectively. Also, on Cbl-b (setting [8]), the IC50 lay within 2 to 5 nM.
In the case of `CC1CCN(Cc2cc3c(c(C(F)(F)F)c2)CN(c2cccc([C@]4(Cc5nncn5C)C[C@@H](C#N)C4)c2)C3=O)CCO1` (stereo partly shown) [Compound 36, (1r,3r)-3-(3-(6-((7-methyl-1,4-oxazepan-4-yl)methyl)-1-oxo-4-(trifluoromethyl)isoindolin-2-yl)phenyl)-3-((4-methyl-4H-1,2,4-triazol-3-yl)methyl)cyclobutane-1-carbonitrile], the fold induction at 0.3 µM was 1.24 to 1.39 in test [1] (setting [3]) and at most 15 in test [2] (setting [3]). In addition, the fold induction at 1 µM in test [1] (setting [4]) is above 1.39; in test [1] (setting [5]), 1 to 1.15; in test [2] (setting [6]), 15 to 20; in test [2] (setting [7]), below 0.4. Further, the fold induction at 3 µM in test [1] (anti-CD3 stimulation alone) fell in the range of 1 to 1.15; in test [2] (anti-CD3 stimulation alone) it was 0.4 to 0.85. Moreover, the IC50 at Cbl-b (setting [8]) lay within 2 to 5 nM.
With `C[C@@H]1CN(Cc2cc3c(c(C(F)(F)F)c2)CN(c2cccc([C@]4(Cc5nncn5C)C[C@@](C)(C#N)C4)c2)C3=O)CCO1` [Compound 7, (1r,3r)-1-methyl-3-((4-methyl-4H-1,2,4-triazol-3-yl)methyl)-3-(3-(6-(((R)-2-methylmorpholino)methyl)-1-oxo-4-(trifluoromethyl)isoindolin-2-yl)phenyl)cyclobutane-1-carbonitrile], the fold induction at 0.3 µM in test [1] (setting [3]) is at most 1.24; in test [2] (setting [3]), at most 15. The fold induction at 1 µM is 1.24 to 1.39 in test [1] (setting [4]), at most 1 in test [1] (setting [5]), at most 15 in test [2] (setting [6]) and below 0.4 in test [2] (setting [7]). The fold induction at 3 µM is at most 1 in test [1] (anti-CD3 stimulation alone) and below 0.4 in test [2] (anti-CD3 stimulation alone). In addition, the IC50 at Cbl-b (setting [8]) and on Cbl-b (setting [9]) was 5 to 20 nM in each case.
